This note sets out measurements from article PMC10349806 (Nature Communications, 2023).

One assay deals with T1, PfCRT variant H273A (Plasmodium falciparum, UniProt Q9N623, A220S/H273A/I356T/K76T/M74I/N326S/N75E/Q271E/R371I).
T1 sequence (Q9N623 1-424 M74I/N75E/K76T/A220S/Q271E/H273A/N326S/I356T/R371I): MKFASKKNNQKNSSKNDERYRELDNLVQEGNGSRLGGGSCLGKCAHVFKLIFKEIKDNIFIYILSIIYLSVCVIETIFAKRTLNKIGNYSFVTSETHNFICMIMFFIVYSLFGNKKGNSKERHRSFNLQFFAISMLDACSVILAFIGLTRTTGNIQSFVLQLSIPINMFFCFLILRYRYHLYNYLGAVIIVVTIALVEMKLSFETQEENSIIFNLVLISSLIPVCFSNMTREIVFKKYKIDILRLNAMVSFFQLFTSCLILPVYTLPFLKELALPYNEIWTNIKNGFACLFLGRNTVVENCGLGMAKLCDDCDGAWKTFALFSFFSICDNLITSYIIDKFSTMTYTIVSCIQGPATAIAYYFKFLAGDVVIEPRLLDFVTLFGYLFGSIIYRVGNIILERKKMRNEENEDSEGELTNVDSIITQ
The experiment in a line: CQ uptake assay, oocytes expressing H273A. The class given is cell-based. As for the experimental part: (§1) Site-directed mutagenesis of PfCRT^Dd2 was performed as described using the megaprimer method with overlap extension[21],[54]. The primer pairs used are listed in Supplementary Table 6. Please note that a codon-optimized and oocyte-adapted version of PfCRT^Dd2 was used[22] (Supplementary Fig. 16). The resulting DNA fragment was cloned into the SP64T expression vector and verified by sequencing.
(§2) Oocytes were obtained as described previously. Briefly, adult (>2 years old) female X. laevis frogs (NASCO) were anesthetized in a cooled solution of ethyl 3-amino benzoate methanesulfonate (0.1%, w/v), followed by a surgical removal of parts of the ovary. The ovary lobes were carefully dissected and small pieces of oocytes were incubated in Ca^2+-free ND96 buffer (96 mM NaCl, 2 mM KCl, 1 mM MgCl2 buffered with 5 mM HEPES/NaOH, pH 7.5) supplemented with collagenase D (0.1%, w/v; Roche), BSA (0.5%, w/v), and 9 mm Na2HPO4 at 18 °C for 14-16 h while gentle shaking. After incubation, the oocytes were carefully washed several times with ND96 buffer (96 mM NaCl, 2 mM KCl, 1.8 mM CaCl2, 1 mM MgCl2 buffered with 5 mM HEPES/NaOH, pH 7.5) supplemented with 100 mg l^−1 gentamycin). Defolliculated and healthy-looking stage V-VI oocytes were manually selected for RNA microinjection. The RNA was generated as following: The codon-optimized sequences of PfCRT variants were cloned into the pSP64T expression vector. After vector linearization using the restriction endonucleases BamHI or SalI (New England Biolabs), transcription was performed using the in vitro SP6 mMessage mMachine Kit (Ambion)[34]. The obtained RNA was kept at −80 °C and diluted with nuclease-free water to a concentration of 0.6 μg μl^−1. Precision-bore glass capillary tubes (3.5-inch glass capillaries; Drummond Scientific Co.) were pulled on a vertical puller (P-87 Flaming/Brown micropipette puller, Sutter Instrument Co.), graduated, and placed on a microinjector (Nanoject II Auto-Nanoliter Injector, Drummond Scientific Co.). 50 nl of nuclease-free water alone (control oocytes) or 50 nl of 0.6 μg μl^−1 RNA were injected under stereomicroscopic control. Injected oocytes were incubated for 46–72 h at 18 °C with twice-daily buffer changes before usage in experiments.
Drug uptake assays were performed as described previously[21],[22],[24],[34]. […] The direction of radio-labeled drug transport is here from the mostly acidic extracellular solution (pH 4.5 or 6.0, as indicated) into the oocyte cytosol (pH ∼ 7.2), which corresponds to the efflux of drug from the acidic digestive vacuole (pH 5.2) into the parasite cytoplasm (pH 7.2). The topology of PfCRT in the oolemma is such that both the N- and C-terminus face the extracellular milieu[3],[22]. In the parasite, the N- and C-terminus face the lumen of the digestive vacuole. CQ uptake kinetics were performed by incubating oocytes in ND96 buffer adjusted to a pH of 4.5, 5.0, 5.5, or 6.0 and supplemented with 50 nM [^3H]CQ and one of 7 different CQ concentrations (10 µM, 50 µM, 100 µM, 200 µM, 300 µM, 400 µM, 500 µM CQ). The reaction was stopped at the 60 min time point, which is in the linear uptake range[22],[34] (Supplementary Fig. 17). […] The radioactivity of each sample was measured using a liquid scintillation analyzer Tri-Carb 4910 TR (PerkinElmer). Oocytes that were injected with water instead of RNA were analyzed in parallel, representing the uptake of a drug by diffusion and/or endogenous permeation pathways. […]

The target of another assay is T2, PfCRT variant D338A (Plasmodium falciparum, UniProt Q9N623, A220S/D338A/I356T/K76T/M74I/N326S/N75E/Q271E/R371I).
T2 sequence (Q9N623 1-424 M74I/N75E/K76T/A220S/Q271E/N326S/D338A/I356T/R371I): T1 sequence (Q9N623 1-424 M74I/N75E/K76T/A220S/Q271E/H273A/N326S/I356T/R371I) with A273H, D338A
The experiment in a line: CQ uptake assay, oocytes expressing D338A. The class given is cell-based. As for the experimental part: as §1, §2
Drug uptake assays were performed as described previously[21],[22],[24],[34]. […] The direction of radio-labeled drug transport is here from the mostly acidic extracellular solution (pH 4.5 or 6.0, as indicated) into the oocyte cytosol (pH ∼ 7.2), which corresponds to the efflux of drug from the acidic digestive vacuole (pH 5.2) into the parasite cytoplasm (pH 7.2). The topology of PfCRT in the oolemma is such that both the N- and C-terminus face the extracellular milieu[3],[22]. In the parasite, the N- and C-terminus face the lumen of the digestive vacuole. CQ uptake kinetics were performed by incubating oocytes in ND96 buffer adjusted to a pH of 4.5, 5.0, 5.5, or 6.0 and supplemented with 50 nM [^3H]CQ and one of 7 different CQ concentrations (10 µM, 50 µM, 100 µM, 200 µM, 300 µM, 400 µM, 500 µM CQ). The reaction was stopped at the 60 min time point, which is in the linear uptake range[22],[34] (Supplementary Fig. 17). For determination of the amount of drug uptake for each oocyte, the reaction medium was removed and the oocytes were washed three times with 2 ml of ice-cold ND96 buffer. Each oocyte was individually transferred to a scintillation vial containing 5% sodium dodecyl sulfate (200 μl) for lysis. The radioactivity of each sample was measured using a liquid scintillation analyzer Tri-Carb 4910 TR (PerkinElmer). Oocytes that were injected with water instead of RNA were analyzed in parallel, representing the uptake of a drug by diffusion and/or endogenous permeation pathways. The resulting value represents the “background“ level of drug accumulation in oocytes (in-depth discussion in[22]). […]

The mark [1] stands for this setting: H273A, 50 µM CQ, 1 h, mean ± SEM.
[2] abbreviates: pH 4.5, single replicates, Fig 1d left.
Where [3] appears, read: pH 6.0, single replicates, Fig 1d left.
Where [4] appears, read: D338A, 50 µM CQ, 1 h, mean ± SEM.

Where a chain is given by its changes, count along the chain named. Values joined by “and” are separate entries in the source; they are usually repeats but may differ in a detail not shown here. Identical values can stand only once.

Regarding `CCN(CC)CCCC(C)Nc1ccnc2cc(Cl)ccc12` (centres unmarked) [CQ, chloroquine], the “Activity at pH 4.5” value was 0.08 ± 0.04 pmol h-1 oocyte-1 at PfCRT variant H273A (setting [1]) and 2.35 ± 0.19 pmol h-1 oocyte-1 on PfCRT variant D338A (setting [4]). The results for the “Activity at pH 6.0” value at PfCRT variant H273A (setting [1]) and on PfCRT variant D338A (setting [4]) were 2.43 ± 0.40 pmol h-1 oocyte-1 and 5.20 ± 0.52 pmol h-1 oocyte-1, respectively. Besides, the R-value at PfCRT variant H273A (H273A, CQ transport at pH 4.5 / pH 6.0) was 0.03 ± 0.02; at PfCRT variant D338A (D338A, CQ transport at pH 4.5 / pH 6.0) it was 0.47 ± 0.06. Moreover, the “H273A transport activity pH 4.5” value on PfCRT variant H273A (setting [2]) was 0.17 pmol oocyte-1 h-1 and 0.00 pmol oocyte-1 h-1 and 0.06 pmol oocyte-1 h-1. In addition, the “H273A transport activity pH 6.0” value on PfCRT variant H273A (setting [3]) is 2.70 pmol oocyte-1 h-1 and 3.11 pmol oocyte-1 h-1 and 1.48 pmol oocyte-1 h-1. Further, the “D338A transport activity pH 4.5” value on PfCRT variant D338A (setting [2]) is 2.81 pmol oocyte-1 h-1 and 2.11 pmol oocyte-1 h-1 and 2.14 pmol oocyte-1 h-1. The “D338A R-value” at PfCRT variant D338A (pH 4.5 vs pH 6.0, Fig 1d left) is 0.58 and 0.33 and 0.49. The “D338A transport activity pH 6.0” value at PfCRT variant D338A (setting [3]) was 4.85 pmol oocyte-1 h-1 and 6.43 pmol oocyte-1 h-1 and 4.33 pmol oocyte-1 h-1.
